Test results from PubChem BioAssay (NCI).
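Cultured in 96-well plates, cells were exposed to test compound for 48 hours across five concentrations. TGI denotes the concentration required for complete inhibition of growth.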

Columns and labels:
Assay in all cases: inhibition of tumour cell growth, NCI panel, 48 h
MCF7 breast = system: MCF7 breast
MDA-MB-435 = system: MDA-MB-435
SK-MEL-28 melanoma = system: SK-MEL-28 melanoma
A498 renal = system: A498 renal
COLO 205 colon = system: COLO 205 colon
TK-10 renal = system: TK-10 renal
UACC-62 melanoma = system: UACC-62 melanoma
CAKI-1 renal = system: CAKI-1 renal
SW-620 colon = system: SW-620 colon
MDA-N = system: MDA-N
ACHN renal = system: ACHN renal
UO-31 renal = system: UO-31 renal
NCI-H23 lung = system: NCI-H23 lung
K-562 leukemia = system: K-562 leukemia
SF-539 CNS = system: SF-539 CNS
HCT-116 colon = system: HCT-116 colon
NCI/ADR-RES ovarian = system: NCI/ADR-RES ovarian
786-0 renal = system: 786-0 renal
SK-MEL-2 melanoma = system: SK-MEL-2 melanoma
HCT-15 colon = system: HCT-15 colon
A549 NSCLC = system: A549 NSCLC
HT29 colon = system: HT29 colon
U251 CNS = system: U251 CNS
OVCAR-8 ovarian = system: OVCAR-8 ovarian
SK-MEL-5 melanoma = system: SK-MEL-5 melanoma
OVCAR-4 ovarian = system: OVCAR-4 ovarian
OVCAR-5 ovarian = system: OVCAR-5 ovarian
MOLT-4 leukemia = system: MOLT-4 leukemia
DU-145 prostate = system: DU-145 prostate
T-47D breast = system: T-47D breast
SK-OV-3 ovarian = system: SK-OV-3 ovarian
HOP-92 NSCLC = system: HOP-92 NSCLC
RPMI-8226 leukemia = system: RPMI-8226 leukemia
NCI-H522 lung = system: NCI-H522 lung
MDA-MB-231 breast = system: MDA-MB-231 breast
SF-268 CNS = system: SF-268 CNS
MALME-3M melanoma = system: MALME-3M melanoma
NCI-H460 lung = system: NCI-H460 lung
HCC-2998 colon = system: HCC-2998 colon
SNB-19 CNS = system: SNB-19 CNS
SN12C renal = system: SN12C renal
RXF 393 renal = system: RXF 393 renal
PC-3 prostate = system: PC-3 prostate
KM12 colon = system: KM12 colon
OVCAR-3 ovarian = system: OVCAR-3 ovarian
HOP-62 NSCLC = system: HOP-62 NSCLC
M14 melanoma = system: M14 melanoma
SR leukemia = system: SR leukemia
SF-295 CNS = system: SF-295 CNS
HL-60(TB) leukemia = system: HL-60(TB) leukemia
EKVX NSCLC = system: EKVX NSCLC
LOX IMVI melanoma = system: LOX IMVI melanoma
SNB-75 CNS = system: SNB-75 CNS
CCRF-CEM leukemia = system: CCRF-CEM leukemia
UACC-257 melanoma = system: UACC-257 melanoma
HS 578T breast = system: HS 578T breast
NCI-H226 lung = system: NCI-H226 lung
IGROV1 ovarian = system: IGROV1 ovarian
BT-549 breast = system: BT-549 breast

Measured: TGI

NCCCNOCCCN
> 100 µM: MCF7 breast | MDA-MB-435 | SK-MEL-28 melanoma | A498 renal | COLO 205 colon | TK-10 renal | UACC-62 melanoma | CAKI-1 renal | SW-620 colon | MDA-N | ACHN renal | UO-31 renal | NCI-H23 lung | K-562 leukemia | SF-539 CNS | HCT-116 colon | NCI/ADR-RES ovarian | 786-0 renal | SK-MEL-2 melanoma | HCT-15 colon | A549 NSCLC | HT29 colon | U251 CNS | OVCAR-8 ovarian | SK-MEL-5 melanoma | OVCAR-4 ovarian | OVCAR-5 ovarian | MOLT-4 leukemia | DU-145 prostate | T-47D breast | SK-OV-3 ovarian | HOP-92 NSCLC | RPMI-8226 leukemia | NCI-H522 lung | MDA-MB-231 breast | SF-268 CNS | MALME-3M melanoma | NCI-H460 lung | HCC-2998 colon | SNB-19 CNS | SN12C renal | RXF 393 renal | PC-3 prostate | KM12 colon | OVCAR-3 ovarian | HOP-62 NSCLC | M14 melanoma | SR leukemia | SF-295 CNS

CCN(CC)CCn1c(=O)c2c(C)c3oc4ccccc4oc3c(C)c2c1=O
> 100 µM: MCF7 breast | MDA-MB-435 | A498 renal | COLO 205 colon | TK-10 renal | UACC-62 melanoma | CAKI-1 renal | SW-620 colon | MDA-N | ACHN renal | K-562 leukemia | SF-539 CNS | HL-60(TB) leukemia | HCT-116 colon | EKVX NSCLC | NCI/ADR-RES ovarian | 786-0 renal | SK-MEL-2 melanoma | HCT-15 colon | LOX IMVI melanoma | A549 NSCLC | HT29 colon | SNB-75 CNS | U251 CNS | OVCAR-8 ovarian | SK-MEL-5 melanoma | OVCAR-4 ovarian | OVCAR-5 ovarian | CCRF-CEM leukemia | UACC-257 melanoma | MOLT-4 leukemia | SK-OV-3 ovarian | HOP-92 NSCLC | RPMI-8226 leukemia | NCI-H522 lung | MDA-MB-231 breast | SF-268 CNS | MALME-3M melanoma | NCI-H460 lung | HCC-2998 colon | SNB-19 CNS | SN12C renal | HS 578T breast | RXF 393 renal | PC-3 prostate | KM12 colon | NCI-H226 lung | HOP-62 NSCLC | IGROV1 ovarian | M14 melanoma | SF-295 CNS | BT-549 breast
